Measurements reported in patent publication US12173026B2, “PRMT5 inhibitors” (Merck Sharp & Dohme LLC, priority 2018, dated 2024).

test system: symmetric dimethylation of arginine (SDMA) of PRMT5 substrates in MCF-7 cells; test: PRMT5 Cell Target Engagement (TE) Assay; assay type: cell-based; conditions: Homo sapiens, MCF7, 72 h; MCF-7 cells treated for 3 days; nuclear SDMA by high content imaging; top concentration 10000 nM
Excerpt: PRMT5 Cell Target Engagement (TE) Assay
The PRMT5 TE assay is a biomarker assay for identifying compounds that inhibit symmetric dimethylation of arginine (SDMA) of PRMT5 substrates. The following substrates have been reported for PRMT5: Histone H2A and H4 R3, Histone H3 R2, Histone 1-13 R8, spliceosome Sm proteins, ribosomal protein RPS10, p53, FEN1, nucleoplasmin, nucleolin, EGFR and EBNA. The assay will focus on detecting symnetrically dimethylated nuclear proteins using high content imaging technology. Detection of the expression of symmetrically dimethylated nuclear proteins is through a mixture of primary rabbit monoclonal antibodies to SDMA (CST 13222) which in turn recognized by an Alexafluor 488 dye-conjugated anti-rabbit IgG secondary antibody. The IN Cell Analyzer 2200 or Opera-Phenix measures nuclear Alexafluor 488 fluorescent dye intensity that is directly related to the level of expression of symmetrically dimethylated nuclear proteins at the single cell level. Nuclear AF488 dye intensities are compared to the mean value for DMSO treated cells (MIN) to report percent of inhibition for each compound-treated well.
In this assay, the cell potency (EC50) of each compound was determined from a ten point (1:3 serial dilution; top compound concentration of 10000 nM) titration curve using the following outlined procedure. Each well of a BD falcon collagen coated black/clear bottom 384-well plate was seeded with 4000 MCF-7 cells in 30 pal media and allowed to attach for 5 hours. Media is ATCC-formulated Eagle's Minimum Essential Medium, Catalog No. 30-2003. The following components were added to the base medium: 0.01 mg/mL human recombinant insulin; fetal bovine serum to a final concentration of 10%. Additional 30 pal of media containing 2× compounds were added to each well. Cells were treated for 3 days in 37° C. CO2 incubator. On day 3, cells were fixed with Cytofix, permeabilized with 0.4% Triton-X-100/Cytofix, and washed with D-PBS without Ca/Mg. Cells were blocked with Licor Odessey blocking reagent for 1 hour at room temperature, followed by incubation with anti-SDMA (1:1000) antibody at 4° C. overnight. 1° antibody was removed, followed by three washings with DPBS without Ca/Mg and 0.05% Tween20. Hoechst (5 μg/mL), Cell Mask deep stain (1:2000) and Alexa488-conjugated goat anti-rabbit IgG (2 μg/mL) was added for 1 hour at room temperature. A final washing step (three washes) was performed before sealing plate for imaging on in Cell Analyzer 2200 or Opera-Phenix. Images from analyzer were uploaded to Columbus for image analysis. IC50 values were determined by 4 parameters robust fit of percent fluorescence units vs. (Log 10) compound concentrations.

| EC50 | SMILES |
| --- | --- |
| 19 nM | Nc1nc2cc(O[C@H]3CC[C@@]4(O)[C@@H]3O[C@@H](n3ccc5c(Cl)ncnc53)[C@@H]4O)ccc2cc1Br [Example 5, (2R,3R,3aS,6S,6aR)-6-((2-amino-3-bromoquinolin-7-yl)oxy)-2-(4-chloro-7H-pyrrolo[2,3-d]pyrimidin-7-yl)hexahydro-2H-cyclopenta[b]furan-3,3a-diol] |
| 1.2 nM | Nc1nc2cc(O[C@H]3CC[C@@]4(O)[C@@H]3O[C@@H](n3ccc5c(N)ncnc53)[C@@H]4O)ccc2cc1Br [Example 6, (2R,3R,3aS,6S,6aR)-6-((2-amino-3-bromoquinolin-7-yl)oxy)-2-(4-amino-7H-pyrrolo[2,3-d]pyrimidin-7-yl)hexahydro-2H-cyclopenta[b]furan-3,3a-diol] |
| 4.8 nM | Cc1ncnc2c1ccn2[C@@H]1O[C@@H]2[C@@H](Oc3ccc4cc(Br)c(N)nc4c3)CC[C@]2(O)[C@H]1O [Example 7, (2R,3R,3aS,6S,6aR)-6-((2-amino-3-bromoquinolin-7-yl)oxy)-2-(4-methyl-7H-pyrrolo[2,3-d]pyrimidin-7-yl)hexahydro-2H-cyclopenta[b]furan-3,3a-diol] |
| 1.3 nM | Nc1nc2cc(C[C@@H]3CC[C@@]4(O)[C@@H]3O[C@@H](n3ccc5c(N)ncnc53)[C@@H]4O)ccc2cc1Br [Example 9, (2R,3R,3aS,6S,6aR)-6-((2-amino-3-bromoquinolin-7-yl)methyl)-2-(4-amino-7H-pyrrolo[2,3-d]pyrimidin-7-yl)hexahydro-2H-cyclopenta[b]furan-3,3a-diol] |
| 10000 nM | COc1ncnc2c1ccn2[C@@H]1O[C@](C)(COc2ccc3cc(Br)c(N)nc3c2)[C@@H](O)[C@H]1O [Example 12, (2R,3S,4R,5R)-2-(((2-amino-3-bromoquinolin-7-yl)oxy)methyl)-5-(4-methoxy-7H-pyrrolo[2,3-d]pyrimidin-7-yl)-2-methyltetrahydrofuran-3,4-diol] |
| 17 nM | C[C@@]1(O)[C@@H](CCc2ccc3cc(Br)c(N)nc3c2)O[C@@H](n2ccc3c(N)ncnc32)[C@@H]1O [Example 14, (2R,3S,4R,5R)-2-(2-(2-amino-3-bromoquinolin-7-yl)ethyl)-5-(4-amino-7H-pyrrolo[2,3-d]pyrimidin-7-yl)-3-methyltetrahydrofuran-3,4-diol] |
| 0.5 nM | C[C@]1(CCc2ccc3cc(Br)c(N)nc3c2)C[C@@H](n2ccc3c(N)ncnc32)[C@H](O)[C@@H]1O [Example 15, (1S,2R,3S,5R)-3-[2-(2-amino-3-bromo-7-quinolinyl)ethyl]-5-(4-amino-7H-pyrrolo[2,3-d]pyrimidin-7-yl)-3-methyl-1,2-cyclopentanediol] |
| 0.9 nM | Cc1ncnc2c1ccn2[C@@H]1C[C@@H]2[C@H](Cc3ccc4cc(Cl)c(N)nc4c3)CC[C@]2(O)[C@H]1O [Example 17, (1S,2R,3aR,4S,6aR)-4-((2-amino-3-chloroquinolin-7-yl)methyl)-2-(4-methyl-7H-pyrrolo[2,3-d]pyrimidin-7-yl)hexahydropentalene-1,6a(1H)-diol] |
| 10.6 nM | Cc1ncnc2c1ccn2[C@@H]1C[C@@H]2[C@@H](Cc3ccc4cc(F)c(N)nc4c3)CC[C@]2(O)[C@H]1O [Example 18, (1S,2R,3aR,4R,6aR)-4-((2-amino-3-fluoroquinolin-7-yl)methyl)-2-(4-methyl-7H-pyrrolo[2,3-d]pyrimidin-7-yl)hexahydropentalene-1,6a(1H)-diol] |
| 1.1 nM | Cc1ncnc2c1ccn2[C@@H]1C[C@@H]2[C@H](Cc3ccc4cc(Br)c(N)nc4c3)CC[C@]2(O)[C@H]1O [Example 19, (1S,2R,3aR,4S,6aR)-4-((2-amino-3-bromoquinolin-7-yl)methyl)-2-(4-methyl-7H-pyrrolo[2,3-d]pyrimidin-7-yl)hexahydropentalene-1,6a(1H)-diol] |
| 0.5 nM | Nc1nc2cc(C[C@@H]3CC[C@@]4(O)[C@@H]3O[C@@H](n3ccc5c(N)ncnc53)[C@@H]4O)cc(F)c2cc1Cl [Example 21, (2R,3R,3aS,6S,6aR)-6-[(2-amino-3-chloro-5-fluoroquinolin-7-yl)methyl]-2-(4-amino-7H-pyrrolo[2,3-d]pyrimidin-7-yl)hexahydro-3aH-cyclopenta[b]furan-3,3a-diol] |
| 30 nM | Cc1ncnc2c1ccn2[C@@H]1O[C@@H]2[C@H](Cc3ccc4cc(Cl)c(N)nc4c3F)CC[C@]2(O)[C@H]1O [Example 22, (2R,3R,3aS,6S,6aR)-6-[(2-amino-3-chloro-8-fluoroquinolin-7-yl)methyl]-2-(4-methyl-7H-pyrrolo[2,3-d]pyrimidin-7-yl)hexahydro-3aH-cyclopenta[b]furan-3,3a-diol] |

The next lines start with the molecule.

| SMILES | EC50 |
| --- | --- |
| C[C@@]1(O)[C@@H](COc2ccc3cc(Br)c(N)nc3c2)C[C@@H](n2ccc3c(Cl)ncnc32)[C@@H]1O [Example 1] | 18 nM |
| C[C@@]1(O)[C@@H](COc2ccc3cc(Br)c(N)nc3c2)C[C@@H](n2ccc3c(N)ncnc32)[C@@H]1O [Example 2] | 0.7 nM |
| C#C[C@@]1(O)[C@@H](COc2ccc3cc(Br)c(N)nc3c2)O[C@@H](n2ccc3c(N)ncnc32)[C@@H]1O [Example 3, (2R,3S,4R,5R)-2-(((2-amino-3-bromoquinolin-7-yl)oxy)methyl)-5-(4-amino-7H-pyrrolo[2,3-d]pyrimidin-7-yl)-3-ethynyltetrahydrofuran-3,4-diol] | 20 nM |
| C[C@]1(CCc2ccc3cc(Br)c(N)nc3c2)O[C@@H](n2ccc3c(N)ncnc32)[C@H](O)[C@]1(C)O [Example 4, (2R,3S,4R,5R)-2-(2-(2-amino-3-bromoquinolin-7-yl)ethyl)-5-(4-amino-7H-pyrrolo[2,3-d]pyrimidin-7-yl)-2,3-dimethyltetrahydrofuran-3,4-diol] | 186 nM |
| Cc1ncnc2c1ccn2[C@@H]1O[C@@H]2[C@H](Cc3ccc4cc(Br)c(N)nc4c3)CC[C@]2(O)[C@H]1O [Example 8, (2R,3R,3aS,6S,6aR)-6-((2-amino-3-bromoquinolin-7-yl)methyl)-2-(4-methyl-7H-pyrrolo[2,3-d]pyrimidin-7-yl)hexahydro-2H-cyclopenta[b]furan-3,3a-diol] | 0.5 nM |
| C[C@@]1(O)[C@@H](COc2ccc3cc(Br)c(N)nc3c2)O[C@@H](n2ccc3c(N)ncnc32)[C@@H]1O [Example 10, (2R,3S,4R,5R)-2-(((2-amino-3-bromoquinolin-7-yl)oxy)methyl)-5-(4-amino-7H-pyrrolo[2,3-d]pyrimidin-7-yl)-3-methyltetrahydrofuran-3,4-diol] | 6.4 nM |
| C[C@@]1(O)[C@@H](COc2ccc3cc(Br)c(N)nc3c2)O[C@@H](n2ccc3c(Cl)ncnc32)[C@@H]1O [Example 11, (2R,3S,4R,5R)-2-{[(2-amino-3-bromoquinolin-7-yl)oxy]methyl}-5-(4-chloro-7H-pyrrolo[2,3-d]pyrimidin-7-yl)-3-methyltetrahydrofuran-3,4-diol] | 131 nM |
| C[C@]1(COc2ccc3cc(Br)c(N)nc3c2)O[C@@H](n2ccc3c(N)ncnc32)[C@H](O)[C@@H]1O [Example 13, (2R,3S,4R,5R)-2-(((2-amino-3-bromoquinolin-7-yl)oxy)methyl)-5-(4-amino-7H-pyrrolo[2,3-d]pyrimidin-7-yl)-2-methyltetrahydrofuran-3,4-diol] | 14 nM |
| Cc1ncnc2c1ccn2[C@@H]1C[C@@H]2[C@H](Cc3ccc4cc(F)c(N)nc4c3)CC[C@]2(O)[C@H]1O [Example 16, (1S,2R,3aR,4S,6aR)-4-((2-amino-fluoroquinolin-7-yl)methyl)-2-(4-methyl-7H-pyrrolo[2,3-d]pyrimidin-7-yl)hexahydropentalene-1,6a(1H)-diol] | 0.9 nM |
| Nc1nc2c(F)c(C[C@@H]3CC[C@@]4(O)[C@@H]3O[C@@H](n3ccc5c(N)ncnc53)[C@@H]4O)ccc2cc1F [Example 20, (2R,3R,3aS,6S,6aR)-6-[(2-amino-3,8-difluoroquinolin-7-yl)methyl]-2-(4-amino-7H-pyrrolo[2,3-d]pyrimidin-7-yl)hexahydro-3aH-cyclopenta[b]furan-3,3a-diol] | 18.6 nM |
| Cc1ncnc2c1ccn2[C@@H]1O[C@@H]2[C@H](Cc3ccc4cc(C(F)F)c(N)nc4c3)CC[C@]2(O)[C@H]1O [Example 23, (2R,3R,3aS,6S,6aR)-6-((2-amino-3-(difluoromethyl)quinolin-7-yl)methyl)-2-(4-methyl-7H-pyrrolo[2,3-d]pyrimidin-7-yl)hexahydro-3aH-cyclopenta[b]furan-3,3a-diol] | 1.5 nM |
